# In patent US20240417812A1, “METHODS FOR TREATING SOLID CANCER PATIENTS WITH CLONAL HEMATOPOIESIS OF INDETERMINATE POTENTIAL” (Olatec Therapeutics, Inc., priority 2022, published 2024):
# Like-named read-outs stand apart in the source and are kept apart here.
# How the values were obtained:
# IL-1β = IL-1β production from bone marrow adherent cells isolated from tumor-bearing mice (ELISA); type: cell-based, mouse; conditions: adherent bone marrow cells from tumor-bearing Tet2+/− mice, LPS stimulated, dapansutrile treated vs untreated; p<0.05
# Procedure: Bone marrow cells from tumor-bearing mice was collected and filtered through […] cell strainer. 3×10^6 cells were plated in 24-well plates and incubated overnight. The next day to non-adherent fraction was removed and the adherent fraction was treated with 10 μM dapansutrile and were cultured in RPMI supplemented with 10% FBS, 100 units/ml penicillin and 0.1 mg/ml streptomycin for 24 hours. Cytokines were measured in cell culture supernatants using DuoSet ELISA (R&D Systems).
# Bone marrow cells were collected from the four long bones as described above and filtered through a […] cell strainer prior to counting. 1×10^6 cells were plated in flat bottom tissue culture plates and incubated overnight. The next day the non-adherent fraction was removed and the adherent fraction was used for downstream experiments.
# For western blot and cytokine analysis, adherent bone marrow cells were stimulated±LPS (100 ng/mL) and cultured for an additional 24 hours. Cells were cultured in RPMI supplemented with 10% FBS, 100 units/ml penicillin and 0.1 mg/ml streptomycin. […] Cytokines were measured in cell culture supernatants using DuoSet ELISA (R&D Systems).
# Next, we assessed the inflammatory potential of myeloid cells from tumor-bearing mice. […]
# Tet2+/− clones = assay: Expansion of Tet2+/− clones in tumor-bearing BM chimera mice; type: in vivo, mouse; conditions: dapansutrile diet
# Description: To create a mouse model that more closely resembles human CHIP, we generated mice with chimeric bone marrow (BM) that was 75% wild type (WT), and 25% Tet2 […] (Tet2+/+) or heterozygous (Tet2+/−). To identify the contribution of WT or Tet2+/− cells to hematopoiesis, we used the pan hematopoietic marker CD45. We used two congenic mouse strains with variants in CD45 C57BL/6 and Boy/J (CD45.2 and CD45.1, respectively), which can be identified with fluorescently labeled antibodies using flow cytometry analysis. To generate the chimeric BM, we lethally irradiated Boy/J recipient mice (CD45.1) with an 11gy split-dose administered three hours apart. Irradiated recipient mice were then transplanted with 2 million unfractionated BM cells that were a mix of 75% CD45.1 WT and 25% CD45.2
# Tet2+/+ or Tet2+/−. Cells were given via a retro-orbital (RO) sinus injection. To monitor the engraftment of donor-derived cells, mice were bled every four weeks via the submandibular vein. […]
# (§1) After 6 weeks of engraftment, mice were given breast tumors via orthotopic transplantation of breast cancer cells. Tumor progression was assessed by measuring the volume of the tumor in the mouse using calipers. […]
# In this example, we first assessed the extent to which Tet2-deficient myeloid cells infiltrated into peripheral blood (FIG. 3A) and in the tumor (FIG. 3B).
# E0771 cells [1] = assay: E0771 orthotopic breast tumor model in Tet2+/+ or Tet2+/− bone marrow chimeric mice; type: in vivo, mouse
# Description: (§2) 2×10^5 E0771 cells were mixed with matrigel and implanted orthotopically into the mammary fat pad (day 0). Mice treated with dapansutrile were fed ad libitum with food pellets containing 7.5 g dapansutrile/kg food, which started on day 3 after E0771 cell implantation and continued until being sacrificed. Mice were sacrificed on day 18 for the germline mouse model and day 15 for the chimeric mouse model. Mice typically consume about 4 g of food per day, resulting in an approximate daily dose of 0 mg/kg/day for control groups and 1,000 mg/kg/day for the treatment groups. […] Wild-type and Tet2+/− mice were fed with control food pellets without dapansutrile. Mice were sacrificed following 15-18 days after E0771 cell implantation. Tumor volumes were assessed using ½(L×W×H) measured via digital caliper.
# To create a mouse model that more closely resembles human CHIP, we generated mice with chimeric bone marrow (BM) that was 75% wild type (WT), and 25% Tet2 […] (Tet2+/+) or heterozygous (Tet2+/−). To identify the contribution of WT or Tet2+/− cells to hematopoiesis, we used the pan hematopoietic marker CD45. […]
# as §1
# [2] = orally administered to healthy subjects; cited from earlier work
# [3] = system: keratinocyte chemoattractant (KC); assay: Plasma KC of BM chimera mice; type: in vivo, mouse; conditions: Tet2+/− chimeras, dapansutrile diet vs standard diet, p<0.05
# Description: (§3) FIGS. 5A-5B show plasma cytokine production of chemokine C-C motif ligand 2 (CCL2, 5A) and keratinocyte chemoattractant (KC, 5B) of BM chimera mice from FIG. 2
# NLRP3 inflammasome = NLRP3 inflammasome (Homo sapiens, UniProt Q96P20); conditions: cited from earlier work
# Sequence of NLRP3 inflammasome (Q96P20 whole entry): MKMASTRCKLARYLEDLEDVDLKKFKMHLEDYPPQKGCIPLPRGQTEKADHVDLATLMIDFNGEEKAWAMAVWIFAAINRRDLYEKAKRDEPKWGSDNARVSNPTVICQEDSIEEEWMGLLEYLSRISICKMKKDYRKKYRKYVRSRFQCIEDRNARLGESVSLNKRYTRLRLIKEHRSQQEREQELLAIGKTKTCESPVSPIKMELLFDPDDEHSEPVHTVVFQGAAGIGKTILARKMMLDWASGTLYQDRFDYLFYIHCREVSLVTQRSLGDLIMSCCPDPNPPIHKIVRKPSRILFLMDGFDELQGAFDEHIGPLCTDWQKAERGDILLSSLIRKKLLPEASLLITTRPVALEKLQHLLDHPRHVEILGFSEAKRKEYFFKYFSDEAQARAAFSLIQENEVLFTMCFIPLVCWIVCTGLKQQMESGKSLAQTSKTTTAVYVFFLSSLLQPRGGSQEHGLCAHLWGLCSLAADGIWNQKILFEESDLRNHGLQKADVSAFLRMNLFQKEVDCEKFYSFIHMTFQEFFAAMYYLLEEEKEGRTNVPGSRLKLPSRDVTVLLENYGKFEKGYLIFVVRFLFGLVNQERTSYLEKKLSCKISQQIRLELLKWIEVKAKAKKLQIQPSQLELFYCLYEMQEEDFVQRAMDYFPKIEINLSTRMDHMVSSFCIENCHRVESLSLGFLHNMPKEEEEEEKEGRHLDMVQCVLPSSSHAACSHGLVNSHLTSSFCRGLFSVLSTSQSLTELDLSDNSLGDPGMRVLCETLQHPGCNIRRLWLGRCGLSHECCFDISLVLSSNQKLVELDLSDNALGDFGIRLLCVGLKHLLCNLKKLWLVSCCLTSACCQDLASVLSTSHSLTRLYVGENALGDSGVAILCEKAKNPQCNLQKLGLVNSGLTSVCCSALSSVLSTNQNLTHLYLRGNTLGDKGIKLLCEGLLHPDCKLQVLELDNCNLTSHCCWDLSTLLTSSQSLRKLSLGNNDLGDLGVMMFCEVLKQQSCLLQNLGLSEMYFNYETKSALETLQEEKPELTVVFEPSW
# [4] = system: tumor-infiltrating granulocytes; assay: Flow cytometry of tumor-infiltrating granulocytes of BM chimera mice; type: in vivo, mouse; conditions: Tet2+/− chimeras
# Procedure: After 6 weeks of engraftment, mice were given breast tumors via orthotopic transplantation of breast cancer cells. Tumor progression was assessed by measuring the volume of the tumor in the mouse using calipers. After 15 days, mice were sacrificed, and their bone marrow, peripheral blood, and tumors were harvested for flow cytometry analysis to determine the levels of immune cell populations and relative contribution from WT or Tet2+/+ or Tet2+/− bone marrow cells.
# Bone marrow isolation and cell staining was performed on ice in staining medium (SM; Hanks Balanced Salt Solution [HBSS 1×, Corning 1-022-CM] supplemented with heat inactivated fetal bovine serum [FBS, VWR 97068-05] to a final concentration of 2%). Femurs and tibiae were flushed with 3 mL of SM and followed by RBC lysis with ACK lysis buffer. Peripheral blood was isolated via the heart and placed into RBC lysis buffer. After RBC lysis cells were incubated on ice for 30 minutes with antibody cocktails prior to being washed and resuspended in SM containing propidium iodide to stain dead cells. Flow cytometry was performed on the BD FACSCelesta.
# [5] = humans treated orally at 1000 mg/day; cited from earlier work
# [6] = Blood level in mice fed dapansutrile food pellets; type: in vivo, mouse; conditions: 7.5 g/kg of dapansutrile in food (approx. 1,000 mg/kg/day)
# Description: as §2
# E0771 cells [7] = assay: E0771 orthotopic breast tumor model in germline Tet2+/+ or Tet2+/− mice; type: in vivo, mouse
# Procedure: 6-8 week old B6(Cg)-Tet2tm1.2Rao/J (JAX) female mice heterozygous for Tet2 allele or wild-type for Tet2 allele were purchased for Jackson Laboratories.
# The murine metastatic mammary cancer cell line E0771 was purchased from ATCC. E0771 cells were cultured in RPMI (Corning) supplemented with 10% FBS, 1% HEPES, 100 units/ml penicillin and 0.1 mg/ml streptomycin. Cells were maintained in a humidified 5% CO2 atmosphere at 37° C.
# as §2
# Myeloid cells are the predominant source of tumor-promoting IL-1β in the breast cancer TME, and TET2 mutations have been reported in tumor-infiltrating leukocytes. […] We orthotopically implanted the murine metastatic luminal B breast cancer cell line, E0771, into Tet2+/+ (WT) or Tet2+/− germline mice. Three days after implantation, mice were placed on a control chow diet or a nutritionally identical diet enriched with OLT1177® (dapansutrile) for 15 days. Mice were sacrificed following […] after E0771 cell implantation.
# [8] = system: chemokine C-C motif ligand 2 (CCL2); assay: Plasma CCL2 of BM chimera mice; type: in vivo, mouse; conditions: Tet2+/− chimeras, dapansutrile diet vs standard diet, p<0.05
# Description: as §3
smiles,measurement,setting,value
"CS(=O)(=O)CCC#N [dapansutrile, 3-methanesulfonyl-propionitrile]",IL-1β secretion,IL-1β,significantly less
same,expansion of Tet2+/− clones,Tet2+/− clones,able to reduce
same,tumor growth,"E0771 cells [1]; Tet2+/+ chimeric mice, dapansutrile diet, to baseline level equivalent to dapansutrile-treated Tet2+/− chimeric mice",suppressed tumor growth
same,tumor growth,"E0771 cells [1]; Tet2+/− chimeric mice, dapansutrile diet from day 3 vs control chow, p<0.001",suppressed
same,safety,[2],safe
same,circulating KC,[3],significantly decreased
same,NLRP3 inflammasome inhibition,NLRP3 inflammasome,selectively inhibit
same,tumor-infiltrating granulocytes (frequency),"[4]; dapansutrile diet vs standard diet, p<0.05",significantly decreased
same,MHC-II expression (gMFI) on tumor-infiltrating granulocytes,"[4]; dapansutrile diet, p<0.001",rescued
same,blood level,[5],40000 ng/mL
same,blood level,[6],~40000 ng/mL
same,tumor growth,"E0771 cells [7]; Tet2+/+ (WT) germline mice on dapansutrile vs standard diet, p<0.05",significantly decreased
same,"tumor growth, difference between genotypes","E0771 cells [7]; Tet2+/+ (WT) vs Tet2+/− mice, both on dapansutrile diet",No changes in tumor growth
same,tumor growth reduction,"E0771 cells [7]; Tet2+/− germline mice, dapansutrile diet (7.5 g/kg food, from day 3) vs Tet2+/− on standard diet, p<0.01",68%
same,circulating CCL2,[8],significantly decreased
